Experimental data: article PMC10307035, “Antiviral activity of singlet oxygen-photogenerating perylene compounds against SARS-CoV-2: Interaction with the viral envelope and photodynamic virion inactivation” (Virus Research, 2023)

Legend:
[1] = ROS generation rate / quantum yield, DPBF bleaching in methanol; type: physicochemical; conditions: in methanol, DPBF trap, 450–470 nm illumination, riboflavin as reference
Text: The ROS generation rate was estimated using the spectrophotometric method, based on the absorption changes of 1,3-diphenylisobenzofuran (DPBF, Sigma Aldrich, Germany) in methanol solution. Irreversible oxidation of DPBF by singlet oxygen results in peroxide formation, and DPBF bleaching. When light of 400–450 nm was used as actinic, DPBF bleaching occurred without any photosensitizer (PS) in solution. Therefore, to study photosensitized ROS generation, we used a white MCWHLP1 LED (Thorlabs, USA) with filters to limit the radiation to the 450–470 nm range (5.5 mW/cm^2).
Spectrophotometric measurements were performed in a Qpod 2e (Quantum Northwest, USA) thermostated cuvette holder at 25 °C with magnetic stirring (500 rpm). Absorption spectra were recorded using a MayaPro spectrophotometer (Ocean Optics, USA) and a stabilized white light source with a SLS201L tungsten lamp (Thorlabs, USA). Illumination was uniform over the entire volume of the cuvette, to prevent artifacts associated with the diffusion of non-reacted components into the illuminated volume of the cuvette. In this case, the rate of irreversible bleaching of DPBF (412 nm) was the same under both continuous and pulsed irradiation with equal total irradiation time. Illumination was performed in a pulsed mode (Fig. S5A), with 1 s of illumination followed by 5 s of dark adaptation, during which the absorption spectrum of the PS-DPBF solution was recorded. Data processing was performed as previously described ([Gvozdev et al., 2020]).

[2] = tested on: feline infectious peritonitis virus (FIPV); type: cell-based, feline coronavirus (FCoV); conditions: 0–10 µM
[3] = Spectrofluorometric analysis of interaction with liposomes; type: physicochemical; conditions: 10 µM in PBS
SARS-CoV-2 = assay: Photodynamic inactivation of SARS-CoV-2 virions; type: cell-based
Procedure: Virus in DMEM (titer of 10^5 PFU/mL) was mixed with the compounds (0–10 µM) in a microtiter plate, in triplicate, and irradiated for 10 min at RT with LEDs (465–480 nm) having an approximate power density of 30 mW/cm^2 (device description in supplement). As a negative control, virus was incubated for 10 min in the dark at RT. Subsequently, both irradiated and non-irradiated virus samples were incubated in the dark at 37 °C for 60 min. All manipulation with the samples before and after this incubation, i.e., mixing the compound with the virus, pipetting into a microtiter plate, etc., were performed in daylight. Viral titers were determined by plaque assays (performed also in daylight) and expressed as PFU/mL, as previously described ([Stefanik et al., 2021]). To eliminate the influence of daylight on compound activity, the whole experiment, including all manipulation with samples, was performed in a dark room under red light. The virus sample was mixed with the indicated compounds at concentrations from 0 to 10 μM or 100 μM, incubated for 60 min at 37 °C and virus viability was evaluated using a plaque assay (Fig. 9A).

Vero cells = assay: Light-induced cytotoxicity in Vero cells; type: cell-based, African Green Monkey; conditions: 0–10 µM, 465–480 nm 10 min, then 24 h in the dark
Procedure: To determine the light-induced cytotoxicity of the tested compounds, Vero cells were cultured for 24 h in 96-well plates to form a confluent monolayer, and then were treated with the tested compounds at concentrations of 0 to 10 µM. Then, the compound-treated cells were irradiated for 10 min at RT with LEDs (465–480 nm) having an approximate power density of 30 mW/cm^2 (device description in Fig. S7). As a negative control, compound-treated cells were incubated for 10 min in the dark at RT. Subsequently, both irradiated and non-irradiated cell monolayers were incubated in the dark at 37 °C for 24 h. Then, the cell culture medium was aspirated and the potential cytotoxicity of the tested perylene derivatives was determined based on cell viability using Cell Counting Kit-8 (Dojindo Molecular Technologies, Munich, Germany) according to the manufacturer's instructions.

In the case of `CC(C)(C)C(=O)OCn1c(=O)c(C#Cc2ccc3c4cccc5cccc(c6cccc2c63)c54)cn(CC(=O)N(CCO)CCO)c1=O` [Compound 13], the “φROS (ROS generation quantum yield)” value [1] is reported as 19.1 ± 0.2%, the “replication of FIPV in CRFK cells” value [2] is reported as “potently suppressed the replication” and the “penetration into liposomal membranes (in words)” value ([3]; EPC/Chol 70/30 mol% liposomes) is reported as “penetrated the liposomal membranes very quickly and efficiently”. For the same molecule, the “steady-state fluorescence signal after mixing with liposomes” value ([3]; at 520 nm, after 1400 s) was “about 10^5 CPS”, the “antiviral effect under red light only” value (SARS-CoV-2; 100 µM, dark room, red light, 60 min at 37 °C) was “no antiviral effect” and the “antiviral activity after blue light irradiation of virus-compound mixture” value (SARS-CoV-2; 465–480 nm, 30 mW/cm^2, 10 min, then 60 min at 37 °C in the dark, plaque assay) was “low-nanomolar”. For the same molecule, the “antiviral activity under red light only” value (SARS-CoV-2; up to 10 µM, dark room, red light, 60 min at 37 °C) was “completely disappeared” and the “effect of blue light irradiation on cytotoxicity” value (Vero cells) was “dramatically increased”.
